Test results as given in patent US8252909B2, “Synthetic C-glycolipid and its use for treating cancer, infectious diseases, and autoimmune diseases” (New York University, priority 2002, dated 2012).
Values joined by “and” are separate entries in the source; they are usually repeats but may differ in a detail not shown here. Equal values may be shown once.

Legend:
[1] = system: B16 melanoma cells; test: melanoma lung metastases, count of metastatic nodules; type: in vivo, C57/BL6 mice; conditions: for dose of equal anti-cancer response (lung metastatic nodules): C57BL/6 mice, intravenously two days before challenge with 5×10^4 B16 cells, lungs checked two weeks later
Protocol: The development of melanoma lung metastases in C57/BL6 mice was determined by first challenging mice intravenously with 5×10^4 syngeneic B16 melanoma cells suspended in DMEM supplemented with 10% FCS. Two weeks after challenge the mice were sacrificed, the lungs removed, and the number of metastatic nodules counted, as described in Fujii et al., Natl. Immunol. 3, 867-874 (2002).

[2] = system: IL-4; test: serum IL-4 after treatment, sandwich ELISA; type: in vivo; conditions: wild type BALB/c mice, 1 μg intravenously
Protocol: (§1) The serum concentrations of IFN-γ and IL-4 were measured 2, 6, 12, 24, 48, and 72 hours after treatment with α-GalCer, α-C-GalCer, or nothing by way of a sandwich ELISA (e-bioscience, San Diego). The serum concentrations of IL-12p70 were also measured at 2, 6, 12, 24, 48 and 72 hours after treatment by way of a sandwich ELISA (Pharmingen, San Diego).

[3] = system: IFN-γ; test: serum IFN-γ after treatment, sandwich ELISA; type: in vivo; conditions: wild type BALB/c mice, 1 μg intravenously
Protocol: as §1

[4] = system: IL-12p70; test: serum IL-12 after treatment, sandwich ELISA; type: in vivo; conditions: wild type BALB/c mice, 1 μg intravenously
Protocol: as §1

[5] = system: P. yoelii sporozoites; test: sporozoite-induced blood stage malaria infection, daily blood smears; type: in vivo; conditions: wild type BALB/c mice, 100 ng intraperitoneally three days before challenge
Protocol: (§2) P. yoelii (17NXL strain) was maintained by alternate cyclic passages in Anopheles stephensi mosquitoes and Swiss Webster mice. Sporozoites obtained from dissected salivary glands of infected mosquitoes 2 weeks after their infective blood were used for challenge of the mice. Challenge of mice to determine the development of liver-stage malaria infection was performed by an intravenous injection of 10,000 viable sporozoites into the tail vein. The outcome of the challenge was determined 40-42 hours later by measuring the parasite burden in the livers of the mice using a quantitative real-time RT-PCR method, as taught in Bruna-Romero et al., Int. J. Parasitol. 31, 1449-1502, 2001. Challenge of mice toe determine the development of blood stage malaria infection was performed by an intravenous injection of 75 viable sporozoites into the tail vein. Starting four days after challenge, daily peripheral blood smears were obtained from each mouse and examined microscopically for the presence of blood stage parasites until day 17 post-challenge. Mice were considered positive for parasitemia if at least one blood stage parasite was observed during the time of examination.

[6] = system: P. yoelii sporozoites; test: malaria liver stage development in mice challenged with P. yoelii sporozoites, real-time RT-PCR of 18S rRNA in liver; type: in vivo; conditions: for suppression of P. yoelii liver stages in deficient mice: mice deficient in CD1d, Jα18, IFN-γ or IFN-γ receptor; for suppression of P. yoelii liver stages in deficient mice / malaria liver stage development: 2 μg intraperitoneally two days before challenge; for malaria liver stage development: compared to untreated control; for dose of equal anti-malaria activity (dose response): intraperitoneally three days before challenge
Protocol: as §2
The degree of liver stage development in challenged mice was determined by quantifying the amount of P. yoelii-specific 18S rRNA molecules in the livers of the mice by way of the real-time RT-PCR technique of Bruna-Romero et al. A 2 μg sample of total RNA prepared from the livers of challenged mice was reverse-transcribed, and an aliquot of the resulting cDNA (133 ng) was used for real-time PCR amplification of P. yoelii 18S rRNA sequences. This amplification was performed in a GeneAmp® 5700 Sequence Detection System (PE Applied Biosystems, Foster City, Calif.). For this purpose, primers 5′-[…]-3′ (SEQ. ID NO: 1) (54 nM) and 5′-[…]-3′ (SEQ. ID NO: 2) (60 nm) were used, together with the dsDNA-specific dye SYBR Green I incorporated into the PCR reaction buffer (PE Biosystems, Foster City, Calif.) in order to detect the PCR product generated. The temperature profile of the reaction was 95° C. for 10 minutes followed by 35 cycles of denaturation of 95° C. for 15 seconds and annealing/extension at 60° C. for 1 minute.

[7] = recent human trials (Shimosaka et al.); cited from earlier work
[8] = system: P. yoelii sporozoites; conditions: mice, administered two days before challenge with Plasmodium sporozoites (Gonzalez-Aseguinolaza 2000); cited from earlier work
[9] = system: liver enzyme activities; conditions: mice, immediately after treatment (Osman et al., 2000); cited from earlier work
[10] = independently of dosage (Nakagawa et al., 1998); cited from earlier work
[11] = 100 ng intraperitoneally four days before challenge

Row | Compound | dose of equal anti-cancer response (lung metastatic nodules) [1] | time of peak serum IL-4 concentration after treatment [2] | time at which detectable serum IFN-γ levels start [3] | time of peak serum IL-12 concentration after treatment [4] | serum IL-12 levels 12 hours after treatment [4] | mice completely protected from blood stage malaria [5] | anti-malaria activity in IL-12 deficient mice [6, 11] | suppression of P. yoelii liver stages in deficient mice [6] | malaria liver stage development ([6]; wild type BALB/c mice) | dose of equal anti-malaria activity (dose response) ([6]; wild type BALB/c mice) | further results
1 | CCCCCCCCCCCCCCCCCCCCCCCCCC(=O)N[C@@H](CC[C@H]1O[C@H](CO)[C@H](O)[C@H](O)[C@H]1O)[C@H](O)[C@H](O)CCCCCCCCCCCCCC [α-C-GalCer, 3′S,4′S,5′R-3′-N-hexacosanoyl-4′,5′-dihydroxynonadecyl-α-C-D-galactopyranoside] | 1 ng | 2 h | 6 h | 6 h | detectable | 9 of 10 | no difference in anti-malaria activity | unable to suppress | virtually no liver stage development | 1 ng | potency against melanoma metastases relative to α-GalCer ([1]; melanoma metastases model, mice): 100 fold; peak serum IL-12 concentration relative to α-GalCer ([4]; 6 hours): 2 times; potency against malaria relative to α-GalCer ([6]; malaria disease model, mice): 1000 fold; extension of anti-malaria effect (kinetic effect) ([6]; wild type BALB/c mice, 100 ng intraperitoneally at various times before challenge): up to three days longer than α-GalCer; suppression of liver stage development, wild type mice ([6]; wild type mice, 100 ng intraperitoneally four days before challenge): suppressed liver stage development to a much greater degree than α-GalCer
2 | CCCCCCCCCCCCCCCCCCCCCCCCCC(=O)N[C@@H](CO[C@H]1O[C@H](CO)[C@H](O)[C@H](O)[C@H]1O)[C@H](O)[C@H](O)CCCCCCCCCCCCCC [α-GalCer, (2S,3S,4R)-1-O-(α-D-galactopyranosyl)-2-(N-hexacosanoylamino)-1,3,4-octadecanetriol] | 100 ng | 2 h | 6 h | 6 h | undetectable | 0 of 10 | no difference in anti-malaria activity | unable to suppress | virtually no liver stage development | 1000 ng | cytotoxicity in humans [7]: not cytotoxic; development of malaria liver stages [8]: suppressed development of malaria liver stages; liver enzyme activities after treatment [9]: transient elevation of liver enzyme activities; peak serum IL-4 concentration relative to α-C-GalCer ([2]; 2 hours): roughly 3 times; time of peak serum IFN-γ post-treatment [3]: 12 h and 24 h; toxicity in rodents and monkeys [10]: does not induce toxicity
